Data from US12146142B2, “Methods for improving genome engineering and regeneration in plant II” (KWS SAAT SE & Co. KGaA, priority 2018, dated 2024).

Tests used:
maize Hi II genotype = experiment: Stable transformation of boost gene in Hi II genotype and appearance of the transgenic plants; assay type: in vivo
Description: Stable transformation of ZmPLT7 gene in Hi II genotype was successful.

maize genotype A188 = experiment: Regeneration of transgenic plants after stable integration of boost gene constructs including Pat-Tdt; assay type: cell-based; settings: construct including Pat-Tdt
Description: This strong boost effect on the level of the embryo was also effective to the efficiency of regeneration of whole transgenic plant.

[1] = test system: maize Hi II immature embryos; experiment: Stable transformation frequency of co-delivered tDT report gene without selection; assay type: cell-based; settings: transient expression, 10 days after co-bombardment
Procedure: Maize embryo preparation, transient bombardment, and embryonic callus induction are described in Examples 1 and 2. The embryos were cultured in N6-5Ag medium at 27° C. in the dark for 14 days. tDT fluorescence was used to monitor embryogenic callus induction and stable transformation by observation under a fluorescent microscope. Specifically, the boost effect was measured by its capability to increase transformation frequency (TF) of the tDT report gene […] after bombardment without a selection.
The strong and uniformed tDT fluorescent signals from the emerging embryonic structures in FIG. 14 indicated integration and stable transformation of tDT gene. Stable transformation frequency is defined as the number of embryos with at least one stable tDT fluorescent structures induced from 100 embryos initially used. Stable transformation frequency was measured 10 days after bombardment.

[2] = test system: maize A188 immature embryos; experiment: Embryogenic structure induction after transient co-bombardment of boost gene constructs; assay type: cell-based; settings: 1 month after bombardment, co-bombarded with Tdt (FIG. 12)
Procedure: At 9-12 days post pollination, maize ears (i.e. A188 or Hi II) with immature embryos having a size of 0.8 to 1.8 mm, preferably 1.0-1.5 mm, were harvested. The ears were sterilized with 70% ethanol for 10-15 minutes. After brief air drying in a laminar hood, the top ˜⅓ of the kernels were removed from the ears with a shark scalpel, and the immature embryos were pulled out of the kernels carefully with a spatula. The fresh isolated embryos were placed onto the bombardment target area in an osmotic medium plate (see below) with scutellum-side up. The plates were wrapped with parafilm and incubated at 25° C. in the dark for 4 hours before bombardment. […]
After bombardment, the embryos remained on the osmotic medium for another 16 hours. Transient transformation was examined using a fluorescence microscope for the tDT expression at excitation maximum 554 nm and emission maximum 581 nm 16-20 hours after bombardment. The embryos with dense fluorescent signals under a fluorescence microscope (FIG. 9) were selected and transferred from N6OSM onto a N6-5Ag plate (˜15 embryos per plate) with scutellum-face-up for callus induction (see below). […]
The embryos with dense fluorescent signals under a fluorescence microscope (FIG. 9) were selected and transferred from N6OSM onto N6-5Ag for embryonic callus induction. […] Embryogenic callus induction was monitored by observation under a dissection microscope. […]

maize A188 plants = experiment: Phenotype of adult plants regenerated from stable transformation of A188; assay type: in vivo; settings: stable transgenic integration, A188, compared to normal A188 plants (FIG. 13)
maize WUS2 promoter = experiment: Maize WUS2 promoter tDT report construct co-bombarded with boost factor; assay type: cell-based; settings: for activation of maize WUS2 promoter / gene: transient co-bombardment in immature embryos and leaves
Description: Homeobox domain transcriptional factor WUSCHEL (WUS) plays an important role in establishing and maintaining of shoot meristem. To identify boost factors that promote endogenous WUS2 expression, the maize WUSCHEL 2 promoter report construct (pAMK-ZmWUS2-tDT-noT) (SEQ ID NO: 29; FIG. 16) was used to illustrate maize WUS2 promoter activity. The maize WUS2 promoter (pZmWUS2) drove expression of the tDT report gene in this report construct (FIG. 16). The WUS2 promoter report construct was co-bombarded with boost factors individually in maize immature embryos and leaf segments.
Fresh leaf segments of 1-2 cm in length were prepared from the in vitro-cultured maize A188 seedling of 10-14 days old, and placed on the Osmotic medium with abaxial side up for 4 hours. For co-bombardment, two plasmids (100 ng of ZmWUS2 promoter report (FIG. 16) and 100 ng of boost construct, e.g. TaRKD4 (FIG. 5)) were premixed and coated onto 100 μg of gold particles size 0.4 μm. Immature embryo preparation, bombardment, and post-bombardment culturing were carried out as described in Example 1 and Example 2. Red fluorescence showing tDT expression was monitored using a fluorescent microscope started at 16 hours after bombardment.

[3] = A188 leaf segments, after bombardment, co-bombarded with pZmWUS2 report

## ZmPLT7: maize PLT7 gene expression construct driven by strong constitutive Brachypodium EF1 promoter (SEQ ID NO: 27; cDNA SEQ ID NO: 3)
Maize Hi II genotype
  stable transformation of the boost gene: successful
Maize Hi II genotype; single construct, compared to normal A188 plants (FIG. 15)
  appearance of transgenic plants: comparable appearance than the normal A188 maize plants
Maize genotype A188
  efficiency of regeneration of transgenic plants: no transgenic plants have been produced successfully
[1]
  effect on stable transformation of co-delivered tDT report gene: promotes stable transformation frequency
[2]
  quantification of embryonic structures with Tdt formation per embryo: slightly increased amount/development of embryonic structures per embryo

## ZmWUS2: maize WUS2 gene expression construct driven by strong constitutive Brachypodium EF1 promoter (SEQ ID NO: 28; cDNA SEQ ID NO: 1)
Maize genotype A188
  efficiency of regeneration of transgenic plants: transgenic plants at a low level of efficiency
[2]
  quantification of embryonic structures with Tdt formation per embryo: slightly increased amount/development of embryonic structures per embryo
Maize A188 plants
  phenotype of produced transgenic plants: without any detrimental phenotype

## wheat RKD4: wheat RKD4 gene, maize-codon optimized, expression construct driven by Brachypodium EF1 promoter (SEQ ID NO: 34)
Maize WUS2 promoter; [3]
  time at which tDT signal peaked: around 44 hours
  time at which tDT signal was detected: around 36 hours
Maize WUS2 promoter; immature embryos, 44 hours after bombardment, compared to WUS promoter reporter only (weak signals)
  tDT red fluorescent signal: extremely strong red fluorescent signals
Maize WUS2 promoter
  activation of maize WUS2 promoter / gene: strongly activate maize WUS2 genes
Maize WUS2 promoter; listed as TaRKD4
  activation of maize WUS2 promoter / gene: activates maize WUS2 promoter
